Experiments:
Type in all cases: cell-based
[1] = test system: A549, NCI H196 and MCF10A; test: Comparison of effectiveness between cell lines (FIG. 27); conditions: 50 μM to 200 μM, L15, one hour CTG
Protocol: FIG. 27 provides a comparison of the effectiveness of the compounds against A549, NCI H196 and MCF10A at concentrations in the range of 50 μM to 200 μM.

[2] = test system: pancreatic cancer cell line CFPAC-1; test: Rapid one hour CellTiter-Glo ATP screening in L15 (FIG. 31)
Source text: [The source words this procedure for another cell line and reports this cell line under the same test.] (§1) When used to identify compounds for specific patients, the following steps will be carried out: • Individualized patient cells will be acquired from a tumor biopsy and cultured/grown in patient blood serum and/or plasma. (In most instances the cells will be obtained using a needle biopsy; i.e. fine needle aspiration biopsy. Optionally, the cells may be obtained from resected tumor (i.e. excisional biopsy, which is an attempt at complete tumor removal), and/or a core biopsy; (i.e. removal of part of the tumor). Alternatively, cells may be obtained from blood draw samples, which would contain leukemia, lymphoma and myeloma cells.) • The cells (as few as 100 cells per experiment) will be screened directly in patient blood serum and/or plasma in the absence or presence of glycolysis inhibitor, 2-deoxyglucose (2DG) using a rapid (1-2 hr) screening assay (CellTiter-Glo, or “CTG”). • NOTE: while the discussion herein focuses on CTG, other assays suitable for measuring changes in ATP levels will perform equally as well. […] DMEM contains glucose, but L15 has substituted glucose with galactose. This means that in DMEM, 2DG is added to inhibit glycolysis; but in L15, the addition of 2DG is unnecessary to achieve the same result as the lack of glucose in L15 precludes access to the metabolic pathway that would utilize glucose. […]

[3] = test system: pancreatic cancer cell line SW-1990; test: Rapid one hour CellTiter-Glo ATP screening in L15 (FIG. 30); conditions: for effectiveness by POC (FIG. 30): L15 media, one hour CTG, at least one concentration level
Source text: [The source words this procedure for another cell line and reports this cell line under the same test.] (§2) When used to identify compounds for specific patients, the following steps will be carried out: • Individualized patient cells will be acquired from a tumor biopsy and cultured/grown in patient blood serum and/or plasma. (In most instances the cells will be obtained using a needle biopsy; i.e. fine needle aspiration biopsy. Optionally, the cells may be obtained from resected tumor (i.e. excisional biopsy, which is an attempt at complete tumor removal), and/or a core biopsy; (i.e. removal of part of the tumor). Alternatively, cells may be obtained from blood draw samples, which would contain leukemia, lymphoma and myeloma cells.) • The cells (as few as 100 cells per experiment) will be screened directly in patient blood serum and/or plasma in the absence or presence of glycolysis inhibitor, 2-deoxyglucose (2DG) using a rapid (1-2 hr) screening assay (CellTiter-Glo, or “CTG”). • NOTE: while the discussion herein focuses on CTG, other assays suitable for measuring changes in ATP levels will perform equally as well. […] DMEM contains glucose, but L15 has substituted glucose with galactose. This means that in DMEM, 2DG is added to inhibit glycolysis; but in L15, the addition of 2DG is unnecessary to achieve the same result as the lack of glucose in L15 precludes access to the metabolic pathway that would utilize glucose. […] The compounds identified with compound numbers 140-161 as depicted in FIGS. 11 and 12 were tested in this manner. NOTE: compound number 141 is Gramicidin, also known as Gramicidin D. This antibiotic is identified by CAS number 1393-88-0. • The rapid screening assay provides evidence of unexpected drug activity for known drugs against cancer cell lines. Thus, the screening of FDA-approved drugs for synergistic activity with metabolic inhibitors can provide anticancer drugs from drugs currently used for other purposes.
(§3) The data presented in FIGS. 16-33 was developed using compounds 140-161 as depicted in FIGS. 11 and 12. […]

[4] = test system: MCF7 and MCF10A; test: Comparison of cancerous and non-cancerous cells (FIG. 33); conditions: 10 μM to 30 μM
Protocol: FIG. 33 compares the impact of compounds 140-161 on breast cancer cell line MCF7 and non-cancerous […] cells MCF10A. All compounds tested were in the range of 10 μM to 30 μM.

[5] = Rapid one hour CellTiter-Glo ATP screening in L15 (FIG. 26); conditions: MCF10A; L15 media; one hour CTG; at least one concentration level
[6] = test system: lung cancer cells A549; test: Rapid one hour CellTiter-Glo ATP screening (FIGS. 16-18, 21-24); conditions: for effectiveness by POC (FIG. 17): 10-30 μM; for effectiveness by POC (FIG. 24): L15 media
Source text: as §2
The data presented in FIGS. 16-33 was developed using compounds 140-161 as depicted in FIGS. 11 and 12. The graphs of FIGS. 16-33 provide a direct comparison of the rapid screening method wherein the tests were carried out over one hour (CTG) using Dulbecco's Modified Eagle Medium (DMEM), […] 2DG and L15 media (described below), a cell media that is missing glucose; the equivalent to DMEM plus 2DG. Compounds 140-161 were screened against lung cancer cells designated A549. Similar results are obtained in most cases, but a few examples show significant enhancement of activity in L15. As used in the discussion below, Rot=rotenone, and 2DG+Rot=a positive control (ATP should be inhibited to a high degree).
FIG. 16 provides a comparison of DMEM and L15 media at 50-200 μM. After one hour of exposure and assessment of the ATP values using CellTiter-Glo assay, the “percent of control” (POC) value is determined with respect to the DMSO control. As reflected by FIG. 16, the following compounds, at the indicated concentrations, would be considered effective against the cancer cells of line A549: 140, 142, 149, 150, 155, 156, 159, 160, 161. The same compounds were tested at 10-30 μM with the results depicted in FIG. 17. At these concentrations, the following compounds would be considered effective at least one concentration level: 141, 155, 156, 159, 160.
FIG. 18 provides a comparison of DMEM with 10 mM 2DG with the compounds of interest at concentrations of 50 to 200 μM and 10 to 30 μM to L15 Media with the compounds of interest at concentrations of 50 to 200 μM and 10 to 30 μM. The compounds were tested against the same cancer cell line with one hour of exposure and CTG assay with POC reported against a DMSO control. Under the reported conditions the following compounds would be considered to have effectiveness in treating the cancer cell line at least one concentration level: 140, 141, 149, 155, 156, 159, 160, 161.
FIGS. 21 and 22 provide test data developed using the rapid testing method described above. […]

[7] = test system: ovarian cancer cell line HeLa; test: Rapid one hour CellTiter-Glo ATP screening in L15 (FIG. 28); conditions: for effectiveness by POC (FIG. 28): L15 media, one hour CTG, at least one concentration level
Source text: [The source words this procedure for another cell line and reports this cell line under the same test.] as §2, §3

[8] = test system: breast cancer cell line MCF7; test: Rapid one hour CellTiter-Glo ATP screening in L15 (FIG. 29); conditions: for effectiveness by POC (FIG. 29): L15 media, one hour CTG, at least one concentration level
Source text: [The source words this procedure for another cell line and reports this cell line under the same test.] as §2, §3

[9] = test system: lung cancer cell line NCI H196; test: Rapid one hour CellTiter-Glo ATP screening in L15 (FIG. 25); conditions: L15 media, one hour CTG, at least one concentration level
Source text: [The source words this procedure for another cell line and reports this cell line under the same test.] as §1

[10] = DMEM and L15 media, one hour, at least one concentration level
[11] = 1-8 μm, 10-30 μM and 50-200 μM, one hour CTG, at least one concentration level

Compound	subtype specificity (FIG. 27) [1]	effectiveness against pancreatic cancer (FIG. 31) ([2]; 145 μM, L15)	effectiveness by POC (FIG. 31) ([2]; L15 media, one hour CTG, at least one concentration level)	effectiveness against pancreatic cancer (FIG. 30) ([3]; 145 μM, L15)	effectiveness by POC (FIG. 30) [3]	impact on cancerous versus non-cancerous cells (FIG. 33) [4]	effectiveness by POC (FIG. 26) [5]	effectiveness (FIG. 23) ([6]; 145 μM in L15)	effectiveness by POC (FIG. 17) [6, 10]	effectiveness by POC (FIG. 16) ([6]; DMEM and L15 media, 50-200 μM, one hour, CellTiter-Glo, DMSO control)	effectiveness by POC when combined with 2DG (FIG. 22) ([6]; DMEM with 10 mM 2DG, 1-8 μm, 10-30 μM and 50-200 μM, one hour CTG, at least one concentration level)	effectiveness by POC (FIG. 24) [6, 11]	effectiveness against ovarian cancer (FIG. 28) ([7]; 145 μM, L15)	effectiveness by POC (FIG. 28) [7]	effectiveness against breast cancer (FIG. 29) ([8]; 145 μM, L15)	effectiveness by POC (FIG. 29) [8]	effectiveness by POC (FIG. 25) [9]
CN(C)CCCOc1nn(Cc2ccccc2)c2ccccc12 [Compound 156, benzydamine]	subtype specificity	effective	likely effective	effective	likely effective	significantly more impact on the cancerous cells	likely effective	unexpected effectiveness	effective	effective	effective	likely to be effective	effective	likely effective	effective	likely effective	–
Gramicidin [Compound 141]	subtype specificity	–	–	–	likely effective	–	likely effective	–	effective	–	–	likely to be effective	–	likely effective	–	likely effective	likely effective

Reference: patent US20250093329A1, “SCREENING OF COMPOUNDS” (THE UNIVERSITY OF TULSA, priority 2022, published 2025)
